Data from BindingDB's records for doi:10.1124/mol.58.6.1511 (Albert Einstein College of Medicine, 2000).

Columns and labels:
[1] = molecular target: Solute carrier organic anion transporter family member 2A1 (Homo sapiens, UniProt Q92959)
[2] = molecular target: Prostaglandin F2-alpha receptor (Human, UniProt P43088)
Sequence of Prostaglandin F2-alpha receptor (P43088 whole entry): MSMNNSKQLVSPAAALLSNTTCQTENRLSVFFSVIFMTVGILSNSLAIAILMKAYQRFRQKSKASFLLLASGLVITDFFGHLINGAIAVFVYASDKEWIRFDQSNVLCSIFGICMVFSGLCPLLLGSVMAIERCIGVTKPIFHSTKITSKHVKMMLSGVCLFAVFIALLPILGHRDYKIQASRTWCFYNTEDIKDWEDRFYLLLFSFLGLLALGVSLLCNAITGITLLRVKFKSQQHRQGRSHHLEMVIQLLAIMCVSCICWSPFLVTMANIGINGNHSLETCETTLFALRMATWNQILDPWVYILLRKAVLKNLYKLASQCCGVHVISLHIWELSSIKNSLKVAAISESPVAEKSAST

SMILES | Ki [1] [nM] | Ki [2] [µM]
CCCCC[C@H](O)/C=C/C1[C@H](O)C[C@H](O)[C@@H]1C/C=C\CCCC(=O)O (stereo partly drawn) [(Z)-7-[(1R,3R,5S)-3,5-Dihydroxy-2-((E)-(S)-3-hydroxy-oct-1-enyl)-cyclopentyl]-hept-5-enoic acid] | 45 | 
CCCCC[C@@H](O)/C=C/[C@@H]1[C@@H](C/C=C/CCCC(N)=O)[C@@H](O)C[C@H]1O [AGN 190911] | 7300 | > 10
CCCCC[C@@H](O)/C=C/[C@@H]1[C@@H](C/C=C/CCCCN)[C@@H](O)C[C@H]1O [AGN 191088] | > 10000 | > 10
CCCCC[C@@H](O)/C=C/[C@@H]1[C@@H](C/C=C/CCCC(=O)NS(C)(=O)=O)[C@@H](O)C[C@H]1O [AGN 191365] | 307 | > 10
CCCCC[C@@H](O)/C=C/[C@@H]1[C@@H](C/C=C/CCCc2nnn[nH]2)[C@@H](O)C[C@H]1O [AGN 191366] | 71 | 8.13
CCCCC[C@H](/C=C/[C@@H]1[C@@H](C/C=C/CCCC(=O)O)[C@@H](O)C[C@H]1O)OC [AGN 191995] | > 10000 | 0.228
CCCCC[C@H](/C=C/[C@@H]1[C@@H](C/C=C/CCCC(N)=O)[C@@H](O)C[C@H]1O)OC [AGN 192151] | > 10000 | > 10
CCCCC[C@@H](O)/C=C/[C@@H]1[C@@H](C/C=C/CCCS(=O)(=O)NC(C)=O)[C@@H](O)C[C@H]1O [AGN 194394] | 34 | > 10
CC(C)OC(=O)CCC/C=C\C[C@@H]1[C@@H](/C=C/[C@@H](O)CCc2ccccc2)[C@H](O)C[C@@H]1O [CAS_130209-76-6] | 168 | 0.018
CCCCCC(O)C=CC1C(O)CC(O)C1CC=CCCCC(=O)OC(C)C (stereo not drawn) [PGF2 Alpha, 1-isopropyl ester] | 5000 | 3.2
